Assay results published in US9428536B2, “Immunostimulatory G, U-containing oligoribonucleotides” (Zoetis Belgium SA, priority 2002, dated 2016).

System: human PBMC
Experiment: Human PBMC IL-12 p40 secretion, ELISA
Type: cell-based
Experimental: Human peripheral blood mononuclear cells (PBMCs) were isolated from healthy donors, plated at 3×10^5 cells/well, stimulated in vitro with various test and control immunostimulatory agents for 16 hours, and then analyzed by enzyme-linked immunosorbent assay (ELISA) using matched antibody pairs from BD-Pharmingen for secreted cytokines IL-12 p40 and TNF-α, performed according to the manufacturer's protocol. Also included were certain negative controls, including medium alone and DOTAP (10 μg/200 μl culture well; “Liposomes”) alone. The control immunostimulatory agents included the imidazoquinolone R-848 (2 μg/ml), lipopolysaccharide (LPS; 1 μg/ml), Pam3Cys (5 μg/ml), poly IC (50 μg/ml), and CpG DNA (50 μg/ml). These are reported ligands for TLR7, TLR4, TLR2, TLR3, and TLR9, respectively. Test immunostimulatory agents included the following RNA molecules, each at 50 μg/ml, with and without DOTAP (10 μg total “with Liposomes” and “without Liposomes”, respectively): GUGUUUAC alone; GUAGGCAC alone; GUGUUUAC in combination with GUAGGCAC; GUAGGA; GAAGGCAC; CUAGGCAC; CUCGGCAC; and CCCCCCCC. These RNA oligonucleotides each contained a phosphorothioate linkage between the penultimate and 3′ terminal nucleoside.
The experiments described in the preceding example were repeated with varied concentrations of RNA oligonucleotides in order to assess the dose-response behavior of human PBMCs to G,U-containing RNA oligonucleotides of the invention. A total of 10, 3 or 1 μg RNA was added to 10 μg DOTAP and then added to the 200 μl culture wells. After 16 hours IL-12 p40 and TNF-α ELISAs were performed as described in Example 1. […]
RNA oligomers GUGUGUGU, GUGUGUG, GUGUGU, GUGUG, GUGU, GUG, and GU, with and without DOTAP, were added over a range of concentrations to overnight cultures of human PBMC. Culture supernatants were harvested, and human TNF-α, IL-12 p40, and IFN-α were measured by ELISA using matched antibody pairs from BD-Pharmingen according to the manufacturer's protocol. […]

CCOCc1nc2c(N)nc3ccccc3c2n1CC(C)(C)O [R-848, 4-amino-α,α-dimethyl-2-ethoxymethyl-1H-imidazo[4,5-c]quinoline-1-ethanol, reference compound]
IL-12 p40 response of human PBMC (in words) (Example 1, FIG. 1, 16 hours, RNA 50 μg/ml with and without DOTAP, R-848 2 μg/ml, LPS 1 μg/ml, Pam3Cys 5 μg/ml, poly IC 50 μg/ml): responsive | effect of DOTAP on the amount of IL-12 p40 secreted (Example 4, FIG. 5, presence versus absence of DOTAP, 16 hour incubation): about the same immunostimultory effect
